Assay [1] has as its target Tyrosine-protein kinase FRK (Homo sapiens) (UniProt P42685). Description: Inhibition of FRK (unknown origin) assessed as residual activity at 100 nM by KINOMEscan analysis relative to control.
The target of assay [2] is T1, Serine/threonine-protein kinase DCLK1 (Homo sapiens) (UniProt O15075).
T1 sequence (whole entry): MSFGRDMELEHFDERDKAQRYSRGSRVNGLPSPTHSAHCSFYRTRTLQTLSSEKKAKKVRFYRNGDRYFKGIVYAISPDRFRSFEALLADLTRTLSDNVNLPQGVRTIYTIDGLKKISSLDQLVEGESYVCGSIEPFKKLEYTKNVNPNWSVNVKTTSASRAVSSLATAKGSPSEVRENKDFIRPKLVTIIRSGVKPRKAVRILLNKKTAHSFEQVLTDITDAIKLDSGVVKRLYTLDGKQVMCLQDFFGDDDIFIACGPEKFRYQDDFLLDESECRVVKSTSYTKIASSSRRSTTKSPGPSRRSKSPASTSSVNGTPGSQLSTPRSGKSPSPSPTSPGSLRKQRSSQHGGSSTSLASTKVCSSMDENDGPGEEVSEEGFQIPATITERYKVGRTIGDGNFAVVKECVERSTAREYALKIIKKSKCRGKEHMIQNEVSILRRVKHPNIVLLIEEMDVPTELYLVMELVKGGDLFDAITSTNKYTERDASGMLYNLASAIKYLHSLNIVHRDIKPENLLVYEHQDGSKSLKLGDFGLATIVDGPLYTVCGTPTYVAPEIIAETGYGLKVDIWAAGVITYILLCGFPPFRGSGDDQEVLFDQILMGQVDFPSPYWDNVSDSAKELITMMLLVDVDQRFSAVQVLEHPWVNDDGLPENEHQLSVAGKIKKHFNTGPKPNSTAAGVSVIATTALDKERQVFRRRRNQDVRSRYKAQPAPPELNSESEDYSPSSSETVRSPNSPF
Nature of the assay: Inhibition of DCAMKL1 (unknown origin) assessed as residual activity at 100 nM by KINOMEscan analysis relative to control.

In assay [3] the test system is Mast/stem cell growth factor receptor Kit (Homo sapiens), P10721 [V559D,T670I]. Nature of the assay: Inhibition of KIT V559D/T670I mutant (unknown origin) assessed as residual activity at 100 nM by KINOMEscan analysis relative to control.
In assay [4] the target is T2, Inhibitor of nuclear factor kappa-B kinase subunit beta (Homo sapiens) (UniProt O14920).
T2 sequence (whole entry): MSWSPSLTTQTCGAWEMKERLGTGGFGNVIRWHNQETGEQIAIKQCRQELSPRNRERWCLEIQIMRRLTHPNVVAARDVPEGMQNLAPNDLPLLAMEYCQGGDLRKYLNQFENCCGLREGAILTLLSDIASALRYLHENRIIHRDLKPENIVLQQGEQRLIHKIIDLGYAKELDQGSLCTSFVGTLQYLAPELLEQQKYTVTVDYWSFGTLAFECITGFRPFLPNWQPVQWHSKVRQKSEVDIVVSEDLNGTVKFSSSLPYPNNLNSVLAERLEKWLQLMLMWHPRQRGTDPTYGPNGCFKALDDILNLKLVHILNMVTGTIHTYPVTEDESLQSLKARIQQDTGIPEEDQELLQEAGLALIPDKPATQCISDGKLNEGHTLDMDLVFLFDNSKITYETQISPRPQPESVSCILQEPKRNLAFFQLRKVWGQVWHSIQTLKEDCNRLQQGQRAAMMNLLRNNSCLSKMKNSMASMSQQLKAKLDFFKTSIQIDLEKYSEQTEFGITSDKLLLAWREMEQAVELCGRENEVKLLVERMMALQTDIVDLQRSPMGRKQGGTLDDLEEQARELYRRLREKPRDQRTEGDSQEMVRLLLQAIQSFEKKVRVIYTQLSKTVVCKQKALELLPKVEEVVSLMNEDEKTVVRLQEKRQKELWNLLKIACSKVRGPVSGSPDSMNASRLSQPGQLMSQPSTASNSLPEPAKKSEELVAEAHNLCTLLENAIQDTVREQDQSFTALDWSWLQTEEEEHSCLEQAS
Nature of the assay: Inhibition of IKK-beta (unknown origin) assessed as residual activity at 100 nM by KINOMEscan analysis relative to control.

Assay [5] has as its target T3, NUAK family SNF1-like kinase 1 (Homo sapiens) (UniProt O60285).
T3 sequence (whole entry): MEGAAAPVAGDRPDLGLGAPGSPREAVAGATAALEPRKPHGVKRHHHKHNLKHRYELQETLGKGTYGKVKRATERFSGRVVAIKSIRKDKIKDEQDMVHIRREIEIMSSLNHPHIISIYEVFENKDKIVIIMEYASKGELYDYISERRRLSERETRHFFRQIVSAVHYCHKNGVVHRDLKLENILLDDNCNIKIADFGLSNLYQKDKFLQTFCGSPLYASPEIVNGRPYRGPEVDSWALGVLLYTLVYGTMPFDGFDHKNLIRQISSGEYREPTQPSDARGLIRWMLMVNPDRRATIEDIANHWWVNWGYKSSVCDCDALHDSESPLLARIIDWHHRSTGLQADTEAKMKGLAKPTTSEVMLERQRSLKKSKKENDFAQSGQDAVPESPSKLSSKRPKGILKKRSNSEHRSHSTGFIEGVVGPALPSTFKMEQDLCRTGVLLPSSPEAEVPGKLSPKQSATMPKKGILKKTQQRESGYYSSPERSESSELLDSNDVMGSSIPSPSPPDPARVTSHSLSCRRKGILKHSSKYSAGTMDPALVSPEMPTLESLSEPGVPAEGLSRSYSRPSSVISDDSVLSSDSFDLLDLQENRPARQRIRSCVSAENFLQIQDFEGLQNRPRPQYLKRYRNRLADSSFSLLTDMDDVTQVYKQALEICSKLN
Nature of the assay: Inhibition of ARK5 (unknown origin) assessed as residual activity at 100 nM by KINOMEscan analysis relative to control.

Assay [6] addresses Ribosomal protein S6 kinase alpha-6 (Homo sapiens) (UniProt Q9UK32). Nature of the assay: Inhibition of C-terminal RSK4 kinetic domain 2 (unknown origin) assessed as residual activity at 100 nM by KINOMEscan analysis relative to control.
Assay [7] has as its target Non-receptor tyrosine-protein kinase TYK2 (Homo sapiens) (UniProt P29597). Description: Inhibition of TYK2 JH2 pseudokinase domain (unknown origin) assessed as residual activity at 100 nM by KINOMEscan analysis relative to control.

Chain of Tyrosine-protein kinase FRK (Homo sapiens) (P42685 whole entry): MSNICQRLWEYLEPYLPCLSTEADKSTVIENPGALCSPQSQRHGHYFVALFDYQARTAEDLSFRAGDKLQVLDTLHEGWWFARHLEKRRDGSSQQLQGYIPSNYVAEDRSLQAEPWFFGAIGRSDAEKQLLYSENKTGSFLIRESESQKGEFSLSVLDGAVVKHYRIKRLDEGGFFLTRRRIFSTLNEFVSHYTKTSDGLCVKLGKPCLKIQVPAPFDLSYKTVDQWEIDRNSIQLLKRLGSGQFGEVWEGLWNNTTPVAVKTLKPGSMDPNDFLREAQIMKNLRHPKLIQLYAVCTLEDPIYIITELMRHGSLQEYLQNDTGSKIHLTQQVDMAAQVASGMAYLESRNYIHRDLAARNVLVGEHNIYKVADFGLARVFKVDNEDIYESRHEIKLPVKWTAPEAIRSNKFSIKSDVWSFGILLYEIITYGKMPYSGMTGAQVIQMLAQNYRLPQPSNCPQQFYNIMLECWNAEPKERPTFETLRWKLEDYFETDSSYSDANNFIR
Chain of Non-receptor tyrosine-protein kinase TYK2 (Homo sapiens) (P29597 whole entry, the tested form may be a part): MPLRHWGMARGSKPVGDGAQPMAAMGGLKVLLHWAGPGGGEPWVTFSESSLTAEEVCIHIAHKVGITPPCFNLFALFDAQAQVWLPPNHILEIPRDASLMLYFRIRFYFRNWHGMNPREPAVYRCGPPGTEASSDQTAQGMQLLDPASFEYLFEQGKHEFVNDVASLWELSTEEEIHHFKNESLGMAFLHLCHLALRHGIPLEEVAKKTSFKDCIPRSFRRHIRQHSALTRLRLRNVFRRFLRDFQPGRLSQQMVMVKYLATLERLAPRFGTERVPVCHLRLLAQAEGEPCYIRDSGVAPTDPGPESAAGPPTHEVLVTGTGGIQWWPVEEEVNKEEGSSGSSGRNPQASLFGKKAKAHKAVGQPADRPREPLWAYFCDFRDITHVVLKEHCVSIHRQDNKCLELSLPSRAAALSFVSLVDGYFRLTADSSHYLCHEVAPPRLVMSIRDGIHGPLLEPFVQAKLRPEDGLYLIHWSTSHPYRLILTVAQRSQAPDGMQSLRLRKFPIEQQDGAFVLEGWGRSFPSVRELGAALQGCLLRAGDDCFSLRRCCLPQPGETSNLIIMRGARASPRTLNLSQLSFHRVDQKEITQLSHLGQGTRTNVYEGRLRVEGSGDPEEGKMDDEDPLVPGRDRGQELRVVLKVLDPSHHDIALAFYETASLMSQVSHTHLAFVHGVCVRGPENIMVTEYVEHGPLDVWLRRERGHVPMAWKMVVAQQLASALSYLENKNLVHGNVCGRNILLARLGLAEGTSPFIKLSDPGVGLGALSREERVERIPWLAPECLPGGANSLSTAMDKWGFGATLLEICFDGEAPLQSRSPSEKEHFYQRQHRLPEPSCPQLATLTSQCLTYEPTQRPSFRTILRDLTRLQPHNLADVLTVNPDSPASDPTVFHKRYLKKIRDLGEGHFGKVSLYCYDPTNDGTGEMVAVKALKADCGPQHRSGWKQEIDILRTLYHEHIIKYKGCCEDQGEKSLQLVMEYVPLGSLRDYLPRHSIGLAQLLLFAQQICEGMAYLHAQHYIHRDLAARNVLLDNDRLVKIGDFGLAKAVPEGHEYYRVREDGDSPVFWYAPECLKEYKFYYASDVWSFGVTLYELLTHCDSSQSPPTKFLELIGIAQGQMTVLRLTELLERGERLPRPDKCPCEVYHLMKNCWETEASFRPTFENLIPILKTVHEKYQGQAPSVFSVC
Chain of Ribosomal protein S6 kinase alpha-6 (Homo sapiens) (Q9UK32 whole entry, the tested form may be a part): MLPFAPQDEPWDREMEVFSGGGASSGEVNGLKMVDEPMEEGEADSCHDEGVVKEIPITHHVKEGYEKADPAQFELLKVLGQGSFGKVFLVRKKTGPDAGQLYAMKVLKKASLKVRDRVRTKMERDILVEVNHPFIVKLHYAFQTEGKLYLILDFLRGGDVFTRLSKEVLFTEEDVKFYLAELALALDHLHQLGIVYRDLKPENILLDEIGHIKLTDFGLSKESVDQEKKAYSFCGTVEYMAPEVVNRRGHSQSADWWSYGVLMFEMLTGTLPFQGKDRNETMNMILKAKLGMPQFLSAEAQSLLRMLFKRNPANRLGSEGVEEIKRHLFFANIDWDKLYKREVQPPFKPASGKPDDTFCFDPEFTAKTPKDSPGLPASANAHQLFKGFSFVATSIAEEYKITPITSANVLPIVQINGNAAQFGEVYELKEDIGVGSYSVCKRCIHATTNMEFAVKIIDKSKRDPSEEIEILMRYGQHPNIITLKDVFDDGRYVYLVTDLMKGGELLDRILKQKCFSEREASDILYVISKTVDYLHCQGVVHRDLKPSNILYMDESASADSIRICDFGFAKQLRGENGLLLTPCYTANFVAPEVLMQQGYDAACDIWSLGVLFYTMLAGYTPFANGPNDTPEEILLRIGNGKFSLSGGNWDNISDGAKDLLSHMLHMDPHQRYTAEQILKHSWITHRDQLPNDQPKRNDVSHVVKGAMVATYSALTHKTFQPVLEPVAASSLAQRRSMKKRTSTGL
Chain of Mast/stem cell growth factor receptor Kit (Homo sapiens), P10721 [V559D,T670I] (P10721 whole entry V559D/T670I): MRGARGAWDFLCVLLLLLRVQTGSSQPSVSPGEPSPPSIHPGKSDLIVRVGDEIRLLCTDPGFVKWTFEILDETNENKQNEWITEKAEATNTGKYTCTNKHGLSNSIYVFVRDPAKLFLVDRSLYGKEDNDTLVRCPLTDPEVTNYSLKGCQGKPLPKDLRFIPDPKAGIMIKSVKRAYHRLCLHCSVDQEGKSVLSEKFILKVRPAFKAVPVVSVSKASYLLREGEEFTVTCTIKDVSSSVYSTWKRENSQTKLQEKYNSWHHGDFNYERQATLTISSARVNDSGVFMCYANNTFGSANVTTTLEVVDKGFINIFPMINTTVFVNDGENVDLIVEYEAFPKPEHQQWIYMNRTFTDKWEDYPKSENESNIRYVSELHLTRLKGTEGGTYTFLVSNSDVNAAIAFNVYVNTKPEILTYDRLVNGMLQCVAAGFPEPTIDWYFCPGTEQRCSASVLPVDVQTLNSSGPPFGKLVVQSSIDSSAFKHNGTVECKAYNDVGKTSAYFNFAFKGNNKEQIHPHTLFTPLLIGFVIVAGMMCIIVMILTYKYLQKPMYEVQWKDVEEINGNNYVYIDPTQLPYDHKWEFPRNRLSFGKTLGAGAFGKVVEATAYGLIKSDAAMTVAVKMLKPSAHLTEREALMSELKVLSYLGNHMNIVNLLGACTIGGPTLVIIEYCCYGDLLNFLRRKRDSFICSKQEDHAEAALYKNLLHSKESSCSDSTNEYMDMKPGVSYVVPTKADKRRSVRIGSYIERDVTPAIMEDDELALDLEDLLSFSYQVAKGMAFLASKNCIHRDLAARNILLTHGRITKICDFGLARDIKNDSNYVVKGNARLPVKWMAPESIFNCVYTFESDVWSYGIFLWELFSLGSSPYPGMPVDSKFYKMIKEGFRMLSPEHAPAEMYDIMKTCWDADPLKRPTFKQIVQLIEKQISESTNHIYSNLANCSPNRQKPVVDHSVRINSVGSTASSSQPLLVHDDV

Regarding `COc1cc2ncnc(N[C@H](C)c3cccc4ccccc34)c2cc1OC`, the Activity stood at 93% in assay [1]; 86% in assay [2]; 92% in assay [3]; 84% in assay [4]; 87% in assay [5]; 86% in assay [6]. The Activity in assay [7] came to 100%.

The values are drawn from ChEMBL document CHEMBL5678818, “Discovery of potent SOS1 inhibitors that block RAS activation via disruption of the RAS-SOS1 interaction” (Proc Natl Acad Sci U S A, 2019).
